This passage reports IC50 results from article PMC9178793, “A Direct Assay for Measuring the Activity and Inhibition of Coactivator-Associated Arginine Methyltransferase 1” (Biochemistry, 2022).

Test [1] has as its target T1, CARM1 (Mus musculus, UniProt Q9WVG6).
T1 construct: corresponding to the PRMT core (residues 130–497, mmCARM1_130–497) were amplified by PCR; GST (followed by TEV protease cleavage site) (N, cleaved yes); made in house; host or cells: Sf9 insect cells (baculovirus)
T1 sequence (Q9WVG6 130-497): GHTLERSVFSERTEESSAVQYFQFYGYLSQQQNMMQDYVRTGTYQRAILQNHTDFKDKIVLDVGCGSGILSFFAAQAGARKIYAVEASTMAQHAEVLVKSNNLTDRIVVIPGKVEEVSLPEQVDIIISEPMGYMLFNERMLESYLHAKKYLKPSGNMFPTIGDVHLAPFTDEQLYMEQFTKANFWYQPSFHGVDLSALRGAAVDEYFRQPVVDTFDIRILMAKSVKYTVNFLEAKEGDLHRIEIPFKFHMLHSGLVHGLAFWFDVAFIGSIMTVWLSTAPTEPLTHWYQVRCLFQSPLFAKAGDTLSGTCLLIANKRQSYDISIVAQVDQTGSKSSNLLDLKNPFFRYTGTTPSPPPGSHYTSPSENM
Description: MRM LC-MS CARM1 enzyme inhibition assay (PABP1 456–466 peptide substrate, direct detection of aDMA product). Format: biochemical. To be noted: 286 nM CARM1, 12 μM PABP1 456–466, 10 μM AdoMet, 15 min preincubation, 2 h room temperature; duplicate data, ± SD. The source says:
The positive clones were confirmed by sequencing (GATC). The sequences were subcloned in a pDEST20 vector using an LR reaction. The resulting recombinant protein is harboring an amino-terminal glutathione S-transferase (GST) tag followed by a Tobacco etch virus (TEV) protease cleavage site. […] Bacmid DNA purified from recombination-positive white colonies was transfected into Sf9 cells using the Lipofectin reagent (Invitrogen). Viruses were harvested 10 days after transfection. Sf9 cells were grown at 300 K in suspension culture in Grace medium (Gibco) using Bellco spinner flasks. sf9 cell culture (1 L, 0.8 × 10^6 cells·mL^-1) was infected with recombinant […]1 virus with an infection multiplicity of 1. The cells were harvested 48 h post-infection. Cell lysis was performed by sonication in 50 mL of buffer A [50 mM Tris-HCl pH 8.0, 250 mM NaCl, 5% glycerol, 5 mM TCEP, 0.01% NP40 and anti-proteases (Roche, Complete, EDTA-free)], and cellular debris was sedimented by centrifugation of the lysate at 40 000g for 30 min. The supernatant was incubated overnight at 277 K with 2 mL of glutathione Sepharose resin (GE Healthcare). After a short centrifugation, the supernatants were discarded, and the beads were poured in an Econo-column (Bio-Rad). After two washing steps with 10 mL of buffer A, 2 mL of buffer A supplemented with in-house produced TEV protease was applied to the columns and digestion was performed for 4 h at 303 K with gentle mixing. The digest was concentrated with an Amicon Ultra 10K (Milipore), loaded on a gel-filtration column (HiLoad 16/60 Superdex S200, GE Healthcare), and eluted at 1 mL·min^-1 with buffer B [20 mM Tris-HCl pH 8.0, 100 mM NaCl, 1 mM TCEP] using an ÄKTA Purifier device (GE Healthcare). Fractions containing […]1_130-497 were pooled and concentrated to 7.75 mg·mL^-1. […] The reaction was subsequently quenched by the addition of 30 μL of the reaction mixture to 10 μL of a 0.1% formic acid solution (pH 2). […] The supernatant (60 μL) was transferred to a new 96-well plate and analyzed. […] The products were eluted with a water-acetonitrile gradient moving from 20 to 92% acetonitrile (0.1% FA) over 6 min at a flow rate of 0.5 mL·min^-1. The injection volume was 10 μL. The ionization source was operated in positive mode using an interface voltage of 4.5 kV, nebulizing gas at 1.5 L/min, drying gas at 15 L/min, and a desolvation line (DL) temperature of 250 °C. The MRM parameter optimization was performed using both the analyte (PABP1^456-466-R^460-aDMA) and hexadeuterated internal standard (PABP1^456-466-R^460-d6-aDMA). The results of this optimization, which include precursor ion scanning, collision energy, and Q1 and Q3 scanning, are summarized in Table 1. […] For commercially available inhibitors that were not soluble in water, stock solutions were prepared in DMSO and diluted to a final DMSO concentration of <1% in the assay mixture. […] The mixture was incubated for 2 h at room temperature, and the reaction was subsequently quenched by the addition of 30 μL of the reaction mixture to 10 μL of a 0.1% formic acid solution (pH 2). […] The supernatant (60 μL) was transferred to a new 96-well plate and analyzed by LC-MS as described above. Negative controls (no enzyme) and positive controls (no inhibitor) were included in each plate. For quantification of the methylated product, the area ratio of analyte to internal standard was calculated and quantified using the linearity line obtained with the reference standards. […] To obtain kcat with units of s^-1, the maximal velocity (Vmax) is divided by 3600. [drawing 3] 3 The percentage inhibition was plotted as a function of inhibitor concentration and fit using a nonlinear regression analysis of the sigmoidal dose-response curve generated using the normalized data and a variable slope following eq 4. [drawing 4] 4 where Y is the percent inhibition, X is the logarithmic concentration of the inhibitors, and Hill Slope is the slope factor or Hill coefficient. […]

Test [2] has as its target T2, CARM1 (Homo sapiens, UniProt Q86X55).
T2 sequence (Q86X55 1-608): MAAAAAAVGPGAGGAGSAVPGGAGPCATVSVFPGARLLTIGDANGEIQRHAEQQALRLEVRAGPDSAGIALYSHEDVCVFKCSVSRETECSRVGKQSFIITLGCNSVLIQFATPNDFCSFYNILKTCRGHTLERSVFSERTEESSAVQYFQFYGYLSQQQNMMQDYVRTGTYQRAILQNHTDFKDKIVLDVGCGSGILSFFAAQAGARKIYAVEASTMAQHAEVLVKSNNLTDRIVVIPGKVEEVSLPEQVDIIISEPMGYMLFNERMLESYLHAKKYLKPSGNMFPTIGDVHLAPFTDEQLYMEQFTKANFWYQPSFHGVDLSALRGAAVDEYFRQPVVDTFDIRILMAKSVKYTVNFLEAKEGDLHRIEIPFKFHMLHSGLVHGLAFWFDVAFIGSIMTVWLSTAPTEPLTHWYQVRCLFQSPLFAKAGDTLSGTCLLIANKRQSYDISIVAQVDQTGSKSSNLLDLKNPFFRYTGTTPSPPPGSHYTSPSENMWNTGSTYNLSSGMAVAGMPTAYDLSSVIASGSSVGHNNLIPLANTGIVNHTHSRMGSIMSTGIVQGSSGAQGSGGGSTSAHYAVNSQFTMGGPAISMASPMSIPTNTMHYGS
To be noted: chemiluminescent ELISA kit, H3-derived peptide, 1 μM AdoMet; cited from earlier work. In general terms: In an ELISA, binding on a coated surface is turned into a signal by an enzyme label.

Test [3] addresses T2, CARM1. Nature of the test: commercially available chemiluminescent antibody-based ELISA kit (histone H3-derived peptide, aDMA at H3-R17). In kind it is biochemical.
Description: We next applied the assay in assessing the inhibition of CARM1 by a number of known inhibitors of varying potencies including AdoHcy (1), MS023 (2), MS049 (3), TP064 (4), and a series of recently reported peptidomimetic CARM1 inhibitors (5–9) (Figure 3).[20],[32]−[35] For the purpose of generating IC50 curves for these inhibitors, concentration ranges were set according to previously reported IC50 values. The inhibitors were first incubated with CARM1 for 15 min at room temperature before the enzyme reaction was initiated by the addition of the AdoMet/PABP1^456–466 substrate mixture. On the basis of the residual CARM1 activity measured, inhibition curves were generated and the IC50 values were determined (Table 3). To evaluate the suitability of the method for the determination of CARM1 inhibition, the IC50 values were compared with those obtained using a commercially available chemiluminescent ELISA kit. […] In addition, the peptide substrate and detection method employed in the ELISA kit are inherently different. The kit employs a histone H3-derived peptide that is covalently linked to the bottom of the well plate, and as such, no substrate concentration is given. Product formation in turn is detected using specific antibodies that recognize aDMA formation at arginine residue H3-R^17.

Like-named read-outs stand apart in the source and are kept apart here. *1 amine or outer side, *2 acyl side, *3 side chain or, on linkers, in order; H or OH if unused. Where a SMILES comes first, the peptide text is derived from it. [ ]: non-standard residue; d: D form. X1 = N=C(NCCC[C@H](N[*:1])C(=O)[*:2])NCCC[C@H]1O[C@@H](n2cnc3c(N)ncnc32)[C@H](O)[C@@H]1O

A word on the IC50: it is the midpoint of a concentration-inhibition curve. On to `CNCCN1CCC(c2cc(CN(C)C(=O)c3cccc(Oc4ccccc4)c3)ccn2)CC1` [Compound 4, reference compound], for which the IC50 at CARM1 [1] came out at 162 ± 10 nM. Still for that read-out and setting: then `CC(=O)N[C@@H](CO)C(=O)N[C@H](C(=O)NCC(=O)NCC(=O)N[C@@H](CCCCN)C(=O)N[C@@H](C)C(=O)N1CCC[C@H]1C(=O)N[C@@H](CCCNC(=N)NCCC[C@H]1O[C@@H](n2cnc3c(N)ncnc32)[C@H](O)[C@@H]1O)C(=O)N[C@@H](CCCCN)C(=O)N[C@@H](CCC(N)=O)C(=O)N[C@@H](CC(C)C)C(=O)N[C@@H](C)C(=O)N[C@H](C(=O)N[C@@H](CCCCN)C(=O)N[C@@H](C)C(=O)N[C@@H](C)C(N)=O)[C@@H](C)O)[C@@H](C)O` [Compound 5] (Ac-STGGKAP[X1]KQLATKAA-NH2), with 770 ± 98 nM; and `CC(=O)N[C@@H](C)C(=O)N1CCC[C@H]1C(=O)N[C@@H](CCCNC(=N)NCCC[C@H]1O[C@@H](n2cnc3c(N)ncnc32)[C@H](O)[C@@H]1O)C(=O)N[C@@H](CCCCN)C(=O)N[C@@H](CCC(N)=O)C(=O)N[C@@H](CC(C)C)C(N)=O` [Compound 7] (Ac-AP[X1]KQL-NH2), with 617 ± 57 nM. With `CSCC[C@H](NC(=O)[C@@H](NC(=O)[C@H](CO)NC(=O)[C@H](Cc1ccccc1)NC(=O)[C@@H]1CCCN1C(=O)[C@@H]1CCCN1C(=O)[C@H](CCCNC(=N)NCCC[C@H]1O[C@@H](n2cnc3c(N)ncnc32)[C@H](O)[C@@H]1O)NC(=O)[C@@H]1CCCN1C(=O)[C@H](C)NC(=O)[C@H](C)NC(=O)[C@@H]1CCCN1C(C)=O)[C@@H](C)O)C(N)=O` [Compound 9] (Ac-PAAP[X1]PPFSTM-NH2), the IC50 on CARM1 [1] is 212 ± 25 nM; on CARM1 [2], 90 ± 16 nM.

For `CC(=O)N[C@@H](CCCCN)C(=O)N[C@@H](C)C(=O)N1CCC[C@H]1C(=O)N[C@@H](CCCNC(=N)NCCC[C@H]1O[C@@H](n2cnc3c(N)ncnc32)[C@H](O)[C@@H]1O)C(=O)N[C@@H](CCCCN)C(=O)N[C@@H](CCC(N)=O)C(=O)N[C@@H](CC(C)C)C(=O)N[C@@H](C)C(N)=O` [Compound 6] (Ac-KAP[X1]KQLA-NH2), the IC50 at CARM1 [1] is 403 ± 28 nM. Consider `CC(=O)N1CCC[C@H]1C(=O)N[C@@H](CCCNC(=N)NCCC[C@H]1O[C@@H](n2cnc3c(N)ncnc32)[C@H](O)[C@@H]1O)C(=O)N[C@@H](CCCCN)C(=O)N[C@@H](CCC(N)=O)C(N)=O` [Compound 8], for which, at CARM1 [1], the IC50 was 1460 ± 21 nM. In the case of `Nc1ncnc2c1ncn2[C@@H]1O[C@H](CSCC[C@H](N)C(=O)O)[C@@H](O)[C@H]1O` [Compound 1, S-adenosyl-L-homocysteine, reference compound], the IC50 at CARM1 [1] was 873 ± 339 nM. As to `CC(C)Oc1ccc(-c2c[nH]cc2CN(C)CCN)cc1` [Compound 2, reference compound], the IC50 on CARM1 [1] amounted to 327 ± 34 nM; against CARM1 [3], 101 ± 11 nM.
